From article PMC7574915 (Science Translational Medicine, 2020)
“And” between values parts separate entries of the source, which are not always exact repeats. Identical values can stand only once. Like-named read-outs stand apart in the source and are kept apart here.

What was measured:
FIPV [1] = experiment: microbe, parasite or virus in culture; type: cell-based, feline infectious peritonitis virus; details: Alphacoronavirus 1, CRFK, 24 h, read-out: EC50 in cell culture, FIPV
3CLpro of SARS-CoV-2 = target: T1, 3CLpro of SARS-CoV-2 (Severe acute respiratory syndrome coronavirus 2, UniProt P0DTD1); experiment: biochemical
T1 construct: His6 (N); made in house; host or cells: E. coli (inferred from the pET-28a(+) vector)

MHV = experiment: microbe, parasite or virus in culture; type: cell-based, mouse hepatitis virus; details: Murine coronavirus, L929, 24 h, read-out: EC50 in cell culture, MHV
3CLpro of MERS-CoV = 3CLpro of MERS-CoV (Middle East respiratory syndrome-related coronavirus, UniProt K9N7C7); experiment: biochemical
Chain of 3CLpro of MERS-CoV (K9N7C7 3248-3553 limits assumed): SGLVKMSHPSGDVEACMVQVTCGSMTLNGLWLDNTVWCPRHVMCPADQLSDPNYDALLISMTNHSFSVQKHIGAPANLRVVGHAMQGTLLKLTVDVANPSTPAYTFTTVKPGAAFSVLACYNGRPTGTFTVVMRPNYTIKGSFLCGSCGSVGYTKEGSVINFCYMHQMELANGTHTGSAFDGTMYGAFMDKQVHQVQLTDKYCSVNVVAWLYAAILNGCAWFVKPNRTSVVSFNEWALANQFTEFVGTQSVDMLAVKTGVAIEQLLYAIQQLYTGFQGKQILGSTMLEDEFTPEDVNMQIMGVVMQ

3CLpro of SARS-CoV = 3CLpro of SARS-CoV (Severe acute respiratory syndrome coronavirus, UniProt P0C6X7); experiment: biochemical
SARS-CoV-2 [2] = experiment: microbe, parasite or virus in culture; type: cell-based; details: Severe acute respiratory syndrome coronavirus 2, Vero C1008, read-out: EC50 in cell culture, SARS-CoV-2
MERS-CoV = experiment: microbe, parasite or virus in culture; type: cell-based
SARS-CoV-2 [3] = experiment: microbe, parasite or virus in culture; type: cell-based
MERSMA-CoV [4] = details: mouse, in vivo, 50 mg/kg/day
MERSMA-CoV [5] = details: mouse, in vivo
FIPV [6] = details: read-out: EC50 in cell culture, FIPV; cited from earlier work
[7] = tested on: feline infectious peritonitis (FIP); details: in vivo; cited from earlier work
[8] = Middle East respiratory syndrome-related coronavirus, Huh-7, read-out: EC50 in cell culture, MERS-CoV

With `CC(C)C[C@H](NC(=O)OC1CCCCC1)C(=O)N[C@H](C=O)C[C@@H]1CCNC1=O` [Compound 6a] the EC50 (FIPV [1]) was 90 ± 20 nM, the IC50 (3CLpro of SARS-CoV-2) was 820 ± 100 nM and the CC50 (in vitro) was > 100 µM. The EC50 (MHV) was 120 ± 50 nM, the IC50 (3CLpro of MERS-CoV) was 350 ± 100 nM and the IC50 (3CLpro of SARS-CoV) was 3900 ± 300 nM.
In the case of `CCCC1CCC(OC(=O)N[C@@H](CC(C)C)C(=O)N[C@H](C=O)C[C@@H]2CCNC2=O)CC1` (stereo partly shown) [Compound 6c], the EC50 (SARS-CoV-2 [2]) is reported as 250 ± 150 nM, the “EC50 in cell culture, MERS-CoV” value (MERS-CoV) is reported as “submicromolar” and the EC50 (MERS-CoV; [8]) is reported as 50 ± 60 nM. The EC50 (FIPV [1]) was 120 ± 10 nM, the IC50 (3CLpro of SARS-CoV-2) was 280 ± 50 nM and the CC50 (in vitro) was > 100 µM. The EC50 (MHV) was 130 ± 50 nM.
For `CCCCC1CCC(OC(=O)N[C@@H](CC(C)C)C(=O)N[C@H](C=O)C[C@@H]2CCNC2=O)CC1` (stereo partly shown) [Compound 6e], the EC50 (SARS-CoV-2 [2]) was 150 ± 140 nM, the “inhibition of viral replication” value (SARS-CoV-2 [3]) was “about 10 fold” and the inhibition at 0.5 µM (SARS-CoV-2 [3]; Severe acute respiratory syndrome coronavirus 2, Epithelial cell, read-out: inhibition of virus replication) was ~50%. For the same molecule, the EC50 (FIPV [1]) was 220 ± 30 nM, the IC50 (3CLpro of SARS-CoV-2) was 170 ± 60 nM and the CC50 (in vitro) was 63.3 ± 2.3 µM. The EC50 (MHV) was 120 ± 40 nM, the IC50 (3CLpro of MERS-CoV) was 150 ± 20 nM and the IC50 (3CLpro of SARS-CoV) was 900 ± 100 nM.
With `CC(C)C[C@H](NC(=O)OC1CCC(F)(F)CC1)C(=O)N[C@H](C=O)C[C@@H]1CCNC1=O` [Compound 6h] the EC50 (SARS-CoV-2 [2]) was 900 ± 800 nM, the EC50 (FIPV [1]) was 120 ± 50 nM and the body weight (MERSMA-CoV [4]; ip) was “continued to lose body weight until 6 dpi but then started to gain weight from 9 dpi”. The “survival at the end of the study (15 dpi)” value (MERSMA-CoV [4]; ip) was 40%, the IC50 (3CLpro of SARS-CoV-2) was 430 ± 100 nM and the CC50 (in vitro) was > 100 µM. For the same molecule, the EC50 (MHV) was 80 ± 50 nM, the IC50 (3CLpro of MERS-CoV) was 70 ± 10 nM and the IC50 (3CLpro of SARS-CoV) was 2300 ± 300 nM.
With `CC(C)C[C@H](NC(=O)OCC1CCC(F)(F)CC1)C(=O)N[C@H](C=O)C[C@@H]1CCNC1=O` [Compound 6j] the “EC50 in cell culture, MERS-CoV” value (MERS-CoV) was “submicromolar”, the EC50 (MERS-CoV; [8]) was 40 ± 20 nM and the “inhibition of viral replication” value (SARS-CoV-2 [3]) was “about 10 fold”. For the same molecule, the “inhibition of virus replication” value (SARS-CoV-2 [3]) was 100 fold, the “Virus titers (log10)” value (SARS-CoV-2 [3]; 48 hours) was 6.35 ± 0.02 log10 and 6.10 ± 0.09 log10 and 6.30 ± 0.1 log10 and the EC50 (FIPV [1]) was 80 ± 20 nM. For the same molecule, the body weight (MERSMA-CoV [4]) was “regained the lost weight by 15 dpi”, the body weight (MERSMA-CoV [4]; ip) was “rapidly recovered from body weight loss starting at 3 dpi” and the “survival at the end of the study (15 dpi)” value (MERSMA-CoV [4]; ip) was “all mice treated with compound 6j were alive”. The CC50 (in vitro) was > 100 µM, the “Edema in the lungs (score 0 to 4)” value (MERSMA-CoV [5]) was “reduced compared to control mice” and the Lung virus titers (MERSMA-CoV [5]) was “decreased”. For the same molecule, the “Scores for hyaline membrane formation (0 to 4)” value (MERSMA-CoV [5]) was “reduced in 6j-treated mice but were not statistically different from control mice” and the “lung lesions (histopathology)” value (MERSMA-CoV [5]) was “few observed lesions”.
For `CC(C)C[C@H](NC(=O)OC1CCCCC1)C(=O)N[C@@H](C[C@@H]1CCNC1=O)C(O)S(=O)(=O)O` (stereo partly shown) [Compound 7a], the “EC50 in cell culture, MERS-CoV” value (MERS-CoV) was “submicromolar”, the EC50 (MERS-CoV; [8]) was 80 ± 100 nM and the EC50 (FIPV [1]) was 70 ± 20 nM. For the same molecule, the IC50 (3CLpro of SARS-CoV-2) was 650 ± 60 nM, the CC50 (in vitro) was > 100 µM and the EC50 (MHV) was 80 ± 30 nM. It also gave an IC50 (3CLpro of MERS-CoV) of 150 ± 10 nM and an IC50 (3CLpro of SARS-CoV) of 3800 ± 400 nM.
For `CCCC1CCC(OC(=O)N[C@@H](CC(C)C)C(=O)N[C@@H](C[C@@H]2CCNC2=O)C(O)S(=O)(=O)O)CC1` (stereo partly shown) [Compound 7c], the EC50 (FIPV [1]) was 170 ± 30 nM, the IC50 (3CLpro of SARS-CoV-2) was 230 ± 50 nM and the CC50 (in vitro) was > 100 µM. It also gave an EC50 (MHV) of 160 ± 80 nM and an IC50 (3CLpro of MERS-CoV) of 100 ± 40 nM.
For `CCCCC1CCC(OC(=O)N[C@@H](CC(C)C)C(=O)N[C@@H](C[C@@H]2CCNC2=O)C(O)S(=O)(=O)O)CC1` (stereo partly shown) [Compound 7e], the “EC50 in cell culture, MERS-CoV” value (MERS-CoV) was “submicromolar”, the EC50 (MERS-CoV; [8]) was 530 ± 200 nM and the EC50 (FIPV [1]) was 170 ± 20 nM. The IC50 (3CLpro of SARS-CoV-2) was 200 ± 60 nM, the CC50 (in vitro) was 59.1 ± 3.5 µM and the EC50 (MHV) was 130 ± 20 nM. The IC50 (3CLpro of MERS-CoV) was 130 ± 60 nM and the IC50 (3CLpro of SARS-CoV) was 1000 ± 100 nM.
For `CC(C)C[C@H](NC(=O)OC1CCC(F)(F)CC1)C(=O)N[C@@H](C[C@@H]1CCNC1=O)C(O)S(=O)(=O)O` (stereo partly shown) [Compound 7h], the “EC50 in cell culture, MERS-CoV” value (MERS-CoV) was “submicromolar”, the EC50 (MERS-CoV; [8]) was 210 ± 100 nM and the EC50 (FIPV [1]) was 120 ± 60 nM. For the same molecule, the IC50 (3CLpro of SARS-CoV-2) was 410 ± 100 nM, the CC50 (in vitro) was > 100 µM and the EC50 (MHV) was 110 ± 80 nM. The IC50 (3CLpro of MERS-CoV) was 80 ± 10 nM and the IC50 (3CLpro of SARS-CoV) was 2200 ± 100 nM.
For `CC(C)C[C@H](NC(=O)OCC1CCC(F)(F)CC1)C(=O)N[C@@H](C[C@@H]1CCNC1=O)C(O)S(=O)(=O)O` (stereo partly shown) [Compound 7j], the EC50 (FIPV [1]) was 70 ± 10 nM, the IC50 (3CLpro of SARS-CoV-2) was 450 ± 100 nM and the CC50 (in vitro) was > 100 µM. For the same molecule, the EC50 (MHV) was 160 ± 50 nM, the IC50 (3CLpro of MERS-CoV) was 100 ± 10 nM and the IC50 (3CLpro of SARS-CoV) was 1100 ± 100 nM.
For `CC(C)C[C@H](NC(=O)OCc1ccccc1)C(=O)N[C@@H](C[C@@H]1CCNC1=O)C(O)S(=O)(=O)O` (stereo partly shown) [GC376, reference compound], the EC50 (MERS-CoV; [8]) is listed as ~1000 nM, the EC50 (MERS-CoV; read-out: EC50 in cell culture, MERS-CoV) is listed as 900 ± 200 nM and the EC50 (FIPV [6]) is listed as 40 nM. The CC50 (in vitro) was > 100 µM and the “progression of FIP” value [7] was “reversed the progression of FIP and resulted in clinical remission”.
